# Read-outs that look alike come from different tables or passages of the source.
# System: human umbilical vein endothelial cells (HUVEC)
# Experiment: HUVEC proliferation assay
# Assay type: cell-based
# Settings: for inhibition at 0.01 µM / inhibition at 0.05 µM / inhibition at 0.001 µM / inhibition at 0.15 µM: Homo sapiens, HUVEC; for inhibition at 0.01 µM: 10 nM; for inhibition at 0.05 µM: 50 nM; for % inhibition @ 150 nM / inhibition at 0.15 µM: Table I screening results, 150 nM; for inhibition at 0.001 µM: 1 nM
# Protocol: HUVEC Proliferation Assay
# This assay determines the ability of a test compound to inhibit the growth factor-stimulated proliferation of human umbilical vein endothelial cells (“HUVEC”). HUVEC cells (passage 3-4, Clonetics, Corp.) were thawed into EGM2 culture medium (Clonetics Corp) in T75 flasks. Fresh EGM2 medium was added to the flasks 24 hours later. Four or five days later, cells were exposed to another culture medium (F12K medium supplemented with 10% fetal bovine serum (FBS), 60 μg/ml endothelial cell growth supplement (ECGS), and 0.1 mg/ml heparin). Exponentially-growing HUVEC cells were used in experiments thereafter. Ten to twelve thousand HUVEC cells were plated in 96-well dishes in 100 μl of rich, culture medium (described above). The cells were allowed to attach for 24 hours in this medium. The medium was then removed by aspiration and 105 μl of starvation media (F12K+1% FBS) was added to each well. After 24 hours, 15 μl of test agent dissolved in 1% DMSO in starvation medium or this vehicle alone was added into each treatment well; the final DMSO concentration was 0.1%. One hour later, 30 μl of VEGF (30 ng/ml) in starvation media was added to all wells except those containing untreated controls; the final VEGF concentration was 6 ng/ml. Cellular proliferation was quantified 72 hours later by MTT dye reduction, at which time cells were exposed for 4 hours MTT (Promega Corp.). Dye reduction was stopped by addition of a stop solution (Promega Corp.) and absorbance at 595 λ was determined on a 96-well spectrophotometer plate reader.
# IC50 values were calculated by curve-fitting the response of A^595 to various concentrations of the test agent; typically, seven concentrations separated by 0.5 log were employed, with triplicate wells at each concentration. For screening compound library plates, one or two concentrations (one well per concentration) were employed, and the % inhibition was calculated by the following formula:
# % inhibition=(control−test) divided by (control−starvation) […]
# control=A^595 when VEGF is present without test agent test=A^595 when VEGF is present with test agent starvation=A^595 when VEGF and test agent are both absent.
# [1] = crude combinatorial urea library, read-out: Inhibition of HUVEC Proliferation % inhibition @ 10 nM
# [2] = crude combinatorial urea library, read-out: Inhibition of HUVEC Proliferation % inhibition @ 50 nM
# [3] = Inhibition of HUVEC Proliferation, crude combinatorial urea library, read-out: Inhibition @ 50 nM
# [4] = crude combinatorial amide library
# [5] = Table II screening results, crude combinatorial amide library
# [6] = Table II screening results, crude combinatorial amide library, read-out: % inhibition @ 10 nM
# [7] = table following Table II (untitled), crude combinatorial library
# [8] = table following Table II (untitled), crude combinatorial library, read-out: % inhibition @ 10 nM
# [9] = Inhibition of HUVEC Proliferation, crude combinatorial urea library, read-out: % inhibition @ 50 nM
compound,measurement,setting,value
CCC(O)CNC(=O)Nc1nc(N)c(-c2nc(-c3cccc(NC(=O)c4cccc(OC)c4)c3)cs2)s1 (stereo not drawn),inhibition at 0.01 µM,[1],30%
same,inhibition at 0.05 µM,[2],135%
COc1cccc(C(=O)Nc2cccc(-c3csc(-c4sc(NC(=O)NCCCN5CCN(C)CC5)nc4N)n3)c2)c1,inhibition at 0.01 µM,[1],-9%
same,inhibition at 0.05 µM,[2],67%
COc1cccc(C(=O)Nc2cc(-c3noc(-c4sc(NC(=O)NCCC(C)C)nc4N)n3)c(F)cc2F)c1,inhibition at 0.05 µM,[3],96%
COc1ccc(/C=C/C(=O)Nc2cccc(-c3csc(-c4sc(Nc5cc(OC)c(OC)c(OC)c5)nc4N)n3)c2)cc1OC,% inhibition @ 150 nM,[4],0%
CNC(=O)Nc1nc(N)c(-c2nc(-c3cccc(NC(=O)C4CCOC4)c3)cs2)s1 (stereo not drawn),inhibition at 0.001 µM,[5],-5%
same,inhibition at 0.01 µM,[6],-8%
COc1ccc(C#N)c(C(=O)Nc2ccc(C)c(-c3noc(-c4sc(Nc5cc(OC)c(OC)c(OC)c5)nc4N)n3)c2)c1,inhibition at 0.001 µM,[7],9%
same,inhibition at 0.01 µM,[8],1%
COc1cccc(C(=O)Nc2cc(-c3csc(-c4sc(NC(=O)NCC(C)(C)CO)nc4N)n3)c(F)cc2F)c1,inhibition at 0.05 µM,[9],120%
COc1cc(Nc2nc(N)c(-c3nc(-c4cc(NC(=O)CC5=CCCCC5)ccc4C)no3)s2)cc(OC)c1OC,inhibition at 0.001 µM,[7],-12%
same,inhibition at 0.01 µM,[8],43%
CCN1CC(NC(=O)Nc2nc(N)c(-c3nc(-c4cc(NC(=O)c5cccc(OC)c5)c(F)cc4F)cs3)s2)CN1CC,inhibition at 0.05 µM,[9],82%
COc1cccc(C(=O)Nc2cc(-c3noc(-c4sc(NC(=O)NCCC(=O)O)nc4N)n3)c(F)cc2F)c1,inhibition at 0.05 µM,[3],56%
CCC(C)CC(=O)Nc1cccc(-c2csc(-c3sc(Nc4cc(OC)c(OC)c(OC)c4)nc3N)n2)c1 (stereo not drawn),inhibition at 0.15 µM,[4],-3%
COc1cccc(C(=O)Nc2cccc(-c3csc(-c4sc(NC(=O)NCCCN5CCCCC5C)nc4N)n3)c2)c1 (stereo not drawn),inhibition at 0.01 µM,[1],-18%
same,inhibition at 0.05 µM,[2],55%
COc1cccc(C(=O)Nc2cccc(-c3csc(-c4sc(NC(=O)NCCS(=O)(=O)O)nc4N)n3)c2)c1,inhibition at 0.01 µM,[1],45%
same,inhibition at 0.05 µM,[2],46%
COc1cc(Nc2nc(N)c(-c3nc(-c4cccc(NC(=O)CCc5c[nH]c6ccccc56)c4)cs3)s2)cc(OC)c1OC,inhibition at 0.15 µM,[4],-4%
COc1cccc(C(=O)Nc2cc(-c3noc(-c4sc(NC(=O)NCC(N)=O)nc4N)n3)c(F)cc2F)c1 [drawing 803],inhibition at 0.05 µM,[3],30%
COc1cccc(C(=O)Nc2cccc(-c3csc(-c4sc(NC(=O)NCP(=O)(O)O)nc4N)n3)c2)c1,inhibition at 0.01 µM,[1],-8%
same,inhibition at 0.05 µM,[2],38%
COc1cccc(C(=O)Nc2cc(-c3noc(-c4sc(NC(=O)NC(C)CN(C)C)nc4N)n3)c(F)cc2F)c1 (stereo not drawn),inhibition at 0.05 µM,[3],27%
CNC(=O)Nc1nc(N)c(-c2nc(-c3cccc(NC(=O)C(C)C)c3)cs2)s1,inhibition at 0.001 µM,[5],10%
same,inhibition at 0.01 µM,[6],-45%
CNC(=O)Nc1nc(N)c(-c2nc(-c3cc(NC(=O)c4cccc(OC)c4)c(F)cc3F)no2)s1 [drawing 782],inhibition at 0.05 µM,[3],105%
COc1cccc(C(=O)Nc2cc(-c3csc(-c4sc(NC(=O)NC5CCS(=O)(=O)C5)nc4N)n3)c(F)cc2F)c1 (stereo not drawn),inhibition at 0.05 µM,[9],100%
COc1cccc(C(=O)Nc2cc(-c3csc(-c4sc(NC(=O)NCCc5ccc(N)cc5)nc4N)n3)c(F)cc2F)c1,inhibition at 0.05 µM,[9],65%
COc1cc(Nc2nc(N)c(-c3nc(-c4cccc(NC(=O)c5ccncc5)c4)cs3)s2)cc(OC)c1OC,inhibition at 0.15 µM,[4],1%
COc1cccc(C(=O)Nc2cccc(-c3csc(-c4sc(NC(=O)NCCC5CCCN5C)nc4N)n3)c2)c1 (stereo not drawn),inhibition at 0.01 µM,[1],39%
same,inhibition at 0.05 µM,[2],0%
CNC(=O)Nc1nc(N)c(-c2nc(-c3cccc(NC(=O)/C=C/c4ccccc4OC)c3)cs2)s1,inhibition at 0.001 µM,[5],-34%
same,inhibition at 0.01 µM,[6],46%
COc1ccc(C(=O)Nc2cccc(-c3csc(-c4sc(Nc5cc(OC)c(OC)c(OC)c5)nc4N)n3)c2)cc1F,inhibition at 0.15 µM,[4],51%
COc1cc(Nc2nc(N)c(-c3nc(-c4cc(NC(=O)c5cccc6[nH]ccc56)ccc4C)no3)s2)cc(OC)c1OC,inhibition at 0.001 µM,[7],13%
same,inhibition at 0.01 µM,[8],72%
COc1cccc(C(=O)Nc2cc(-c3noc(-c4sc(NC(=O)NCCc5cncn5C)nc4N)n3)c(F)cc2F)c1,inhibition at 0.05 µM,[3],10%
CNC(=O)Nc1nc(N)c(-c2nc(-c3cccc(NC(=O)Cc4c(F)cccc4F)c3)cs2)s1,inhibition at 0.001 µM,[5],-3%
same,inhibition at 0.01 µM,[6],-2%
COc1cccc(C(=O)Nc2cc(-c3noc(-c4sc(NC(=O)NCC(C)(C)N)nc4N)n3)c(F)cc2F)c1,inhibition at 0.05 µM,[3],14%
CNC(=O)Nc1nc(N)c(-c2nc(-c3cccc(NC(=O)c4ccccc4C(C)C)c3)cs2)s1,inhibition at 0.001 µM,[5],-9%
same,inhibition at 0.01 µM,[6],26%
COc1cccc(C(=O)Nc2cc(-c3noc(-c4sc(NC(=O)NCC(F)(F)F)nc4N)n3)c(F)cc2F)c1,inhibition at 0.05 µM,[3],89%
COc1cccc(C(=O)Nc2ccc(C)c(-c3noc(-c4sc(Nc5cc(OC)c(OC)c(OC)c5)nc4N)n3)c2)c1 [drawing 1122],inhibition at 0.001 µM,[7],35%
same,inhibition at 0.01 µM,[8],94%
CNC(=O)Nc1nc(N)c(-c2nc(-c3cccc(NC(=O)c4cc(C)n[nH]4)c3)cs2)s1,inhibition at 0.001 µM,[5],32%
same,inhibition at 0.01 µM,[6],-22%
COc1cccc(C(=O)Nc2cc(-c3csc(-c4sc(NC(=O)NCc5ccccc5)nc4N)n3)c(F)cc2F)c1 [drawing 678],inhibition at 0.05 µM,[9],93%
COc1cccc(C(=O)Nc2cc(-c3noc(-c4sc(NC(=O)NCCCN5CCCC5=O)nc4N)n3)c(F)cc2F)c1 [drawing 763],inhibition at 0.05 µM,[3],106%
COc1cc(OC)cc(C(=O)Nc2cccc(-c3csc(-c4sc(Nc5cc(OC)c(OC)c(OC)c5)nc4N)n3)c2)c1,inhibition at 0.15 µM,[4],51%
COc1cccc(C(=O)Nc2cc(-c3csc(-c4sc(NC(=O)NCCCC(=O)O)nc4N)n3)c(F)cc2F)c1,inhibition at 0.05 µM,[9],40%
COc1cccc(C(=O)Nc2cccc(-c3csc(-c4sc(NC(=O)NCCCN5CCOCC5)nc4N)n3)c2)c1,inhibition at 0.01 µM,[1],19%
same,inhibition at 0.05 µM,[2],83%
COc1cccc(C(=O)Nc2cccc(-c3csc(-c4sc(NC(=O)NCCN5CCNC5=O)nc4N)n3)c2)c1,inhibition at 0.01 µM,[1],0%
same,inhibition at 0.05 µM,[2],35%
COc1cc(Nc2nc(N)c(-c3nc(-c4cccc(NC(=O)C5C6CC7C(C6=O)C75)c4)cs3)s2)cc(OC)c1OC (stereo not drawn),inhibition at 0.15 µM,[4],-6%
COc1ccc(C(=O)Nc2cccc(-c3csc(-c4sc(Nc5cc(OC)c(OC)c(OC)c5)nc4N)n3)c2)cc1Cl,% inhibition @ 150 nM,[4],0%
CCC(C(=O)Nc1cccc(-c2csc(-c3sc(Nc4cc(OC)c(OC)c(OC)c4)nc3N)n2)c1)c1ccccc1 (stereo not drawn),inhibition at 0.15 µM,[4],6%
COc1cccc(C(=O)Nc2cc(-c3csc(-c4sc(NC(=O)NCCc5ccc(S(N)(=O)=O)cc5)nc4N)n3)c(F)cc2F)c1,inhibition at 0.05 µM,[9],25%
[CH2-][N+](=O)c1cccc(/C=C/C(=O)Nc2cccc(-c3csc(-c4sc(Nc5cc(OC)c(OC)c(OC)c5)nc4N)n3)c2)c1,% inhibition @ 150 nM,[4],0%
COc1cccc(C(=O)Nc2cc(-c3csc(-c4sc(NC(=O)NCC5CCC=CO5)nc4N)n3)c(F)cc2F)c1 (stereo not drawn),inhibition at 0.05 µM,[9],42%
COc1cccc(C(=O)Nc2cc(-c3noc(-c4sc(NC(=O)NCCN5CCCC5)nc4N)n3)c(F)cc2F)c1,inhibition at 0.05 µM,[3],79%
COc1cccc(C(=O)Nc2cc(-c3csc(-c4sc(NC(=O)NCC(=O)O)nc4N)n3)c(F)cc2F)c1,inhibition at 0.05 µM,[9],23%
COc1cccc(C(=O)Nc2cc(-c3noc(-c4sc(NC(=O)N[C@H]5CC[C@H](O)CC5)nc4N)n3)c(F)cc2F)c1 [drawing 770],inhibition at 0.05 µM,[3],92%
COc1cccc(C(=O)Nc2cccc(-c3csc(-c4sc(NC(=O)NCC5(O)CCCCC5)nc4N)n3)c2)c1,inhibition at 0.01 µM,[1],4%
same,inhibition at 0.05 µM,[2],2%
CNC(=O)Nc1nc(N)c(-c2nc(-c3cccc(NC(=O)C(=O)CC(C)C)c3)cs2)s1,inhibition at 0.001 µM,[5],3%
same,inhibition at 0.01 µM,[6],11%
COc1cc(Nc2nc(N)c(-c3nc(-c4cccc(NC(=O)CC56CC7CC8CC(C5)C8(C7)C6)c4)cs3)s2)cc(OC)c1OC (stereo not drawn),inhibition at 0.15 µM,[4],8%
CNC(=O)Nc1nc(N)c(-c2nc(-c3cccc(NC(=O)CC(C)(C)NC(C)=O)c3)cs2)s1,inhibition at 0.001 µM,[5],4%
same,inhibition at 0.01 µM,[6],-11%
COc1cccc(C(=O)Nc2cccc(-c3csc(-c4sc(NC(=O)NCCc5ccncc5)nc4N)n3)c2)c1,inhibition at 0.01 µM,[1],-5%
same,inhibition at 0.05 µM,[2],97%

# — patent US6620828B2, “Thiazole compounds and pharmaceutical compositions for inhibiting protein kinases and methods for their use” (Agouron Pharmaceuticals, Inc., priority 1999, dated 2003)
